{"source": "patent US20260053837A1", "about": "“NICOTINAMIDE-RIBOSIDE AND PTEROSTILBENE COMBINATIONS TO TREAT OSTEOARTHRITIS” (The Regents of the University of California, priority 2022, published 2026)", "key": {"[1]": {"system": "injury-induced OA model", "test": "pain behavior in injury-induced OA model (DMM surgery; Von Frey test, static weight bearing)", "type": "in vivo, mice", "conditions": "NR 400 mg/kg/day, PT 80 mg/kg/day", "experimental": "In vivo studies were designed to determine if oral supplementation of NR+PT (5:1) with NR at 400 mg/kg/day (the commonly used dose in animal studies) and PT at 80 mg/kg/day is better than NR alone (400 mg/kg/day) or PT alone (80 mg/kg/day), in limiting cartilage degradation and reducing pain in an injury-induced OA model. […] Because synergistic or additive effect of NR+PT combination was not initially observed, in vitro studies tested the combination of NR and PT at different ratio (NR:PT, 1:1, 2:1, 4:1, 6:1) and different concentrations (based on PT concentration at 25, 50 and 100 uM) on chondrocyte response to IL-1beta. Because IL-1b is known to induce nitric oxide (NO) production in chondrocytes, NO release (measured from the conditioned media) was used as a readout. It was determined that NR+PT at 2:1 ratio had the best efficacy in inhibition of IL-1b induced NO release, particularly for NR at 0.1 mM and PT at 0.05 mM. […] See, FIGS. 1 and 2. C57BL/6J mice at 12 weeks of age were subjected to joint injury via destabilization of medial meniscus (DMM) surgery through transection of meniscotibial ligament. Sham surgery (just skin incision) was performed on separate group of mice. […] Pain-like behaviors was evaluated at baseline (1 weeks before the surgery) and 2, 4, 6, 8 and 10 weeks after DMM surgery. • 1. […]"}, "[2]": {"conditions": "cited from earlier work"}}, "data": [{"smiles": "NC(=O)c1ccc[n+]([C@@H]2O[C@H](CO)[C@@H](O)[C@H]2O)c1", "note": "[NR, nicotinamide riboside]", "values": [{"measurement": "efficacy on pain, comparison among treatment groups", "setting": "[1]; NR+PT 5:1, gavage daily", "value": "slightly better efficacy"}, {"measurement": "pain compared to the non-treated controls", "setting": "[1]; NR+PT 5:1, gavage daily after DMM surgery", "value": "significantly less pain"}, {"measurement": "reduction of conversion of NR to NAM", "setting": "[2]; germ-free mice after oral intake", "value": 3, "unit": "fold"}, {"measurement": "stability of NR in gut and circulation", "setting": "[2]; mouse, in vivo", "value": "rapidly degraded to NAM"}]}]}
